According to publication PMC8496750, “Identification of the organic anion transporting polypeptides responsible for the hepatic uptake of the major metabolite of epyrifenacil, S‐3100‐CA, in mice” (Pharmacology Research & Perspectives, 2021):

Key:
human OATP1B1 = molecular target: T1, human OATP1B1 (Homo sapiens, UniProt Q9Y6L6); assay: Uptake assay for radiolabeled substrates, human OATP1B1 expressing 293FT cells; type: in vitro ADME; details: for Ratio of uptake amount relative to the uptake into mock cells: 10‐min incubation
T1 construct: expressed in transfected cells; host or cells: 293FT cells
T1 sequence (Q9Y6L6 1-691): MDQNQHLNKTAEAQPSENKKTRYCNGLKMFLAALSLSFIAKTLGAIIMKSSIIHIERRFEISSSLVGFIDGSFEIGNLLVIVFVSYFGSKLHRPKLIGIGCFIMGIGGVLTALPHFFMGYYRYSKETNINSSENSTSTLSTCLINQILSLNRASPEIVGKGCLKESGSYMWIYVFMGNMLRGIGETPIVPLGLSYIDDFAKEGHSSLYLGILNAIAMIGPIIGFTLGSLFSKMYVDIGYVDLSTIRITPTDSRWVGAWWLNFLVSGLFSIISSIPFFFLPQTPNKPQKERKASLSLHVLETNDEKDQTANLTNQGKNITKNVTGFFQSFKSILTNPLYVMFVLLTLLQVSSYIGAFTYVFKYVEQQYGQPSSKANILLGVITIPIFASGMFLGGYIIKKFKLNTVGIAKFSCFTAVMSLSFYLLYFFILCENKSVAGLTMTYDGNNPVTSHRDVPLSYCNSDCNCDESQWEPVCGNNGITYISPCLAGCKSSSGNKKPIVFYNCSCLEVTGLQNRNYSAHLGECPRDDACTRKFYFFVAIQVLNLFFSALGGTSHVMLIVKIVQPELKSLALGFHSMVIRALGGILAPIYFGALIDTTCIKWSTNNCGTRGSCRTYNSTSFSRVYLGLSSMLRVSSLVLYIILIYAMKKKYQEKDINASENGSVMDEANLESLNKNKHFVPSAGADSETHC
Experimental: (§1) 293FT cells were purchased from Thermo Fisher Scientific, Inc.. The cells were grown in Dulbecco's modified Eagle medium (supplemented with 4.5 g/L glucose and 2 mM L‐glutamine) at 37°C, 5% CO2, and 95% humidity. The cells were passaged 3 times per week by harvesting cells using trypsin and plating at a density of 1.0 × 10^4 cells/cm^2 in a 10 cm cell culture plate for maintenance culture. The 293FT cells were detached using trypsin and re‐seeded at a density of 2.5 × 10^4 cells/cm^2 in BioCoat™ Collagen I 6‐well plates (Corning Inc.) for transfection and then treated with 1.2 μg of plasmid vector and 3.2 μl of Lipofectamine™ 2000 Transfection Reagent (Thermo Fisher Scientific, Inc.) according to the manufacturer's instructions. After a 3‐h treatment, the transfection medium was replaced with a fresh cell culture medium and incubated at 37°C with 95% humidity and 5% CO2 until ready for the assay.
(§2) Transport experiments were conducted approximately 24 h post‐transfection. The experiments were initiated by aspirating culture medium and addition of pre‐warmed radiolabeled substrate solution (final 1.0% of acetonitrile or 0.9% of ethanol in phosphate‐buffered saline (PBS[−])) to each well. After a 10‐min incubation, cells were washed twice with 1 ml of ice‐cold PBS(−) and lysed with 700 μl of 1.0 M NaOH for 3 h or more at room temperature. The lysate was transferred to a 1.5‐ml tube, and neutralized with 350 μl of 2.0 M HCl and 350 μl of 2.0% sodium dodecyl sulfate (SDS) solution. From the lysate, 1.0 ml was transferred to a vial containing 10 ml of Emulsifier Scintillator Plus to measure the radioactivity in the LSC. The protein concentration of the cell lysate was also measured using a Pierce™ BCA Protein Assay Kit (Thermo Fisher Scientific, Inc.), which was used to normalize, according to the cell number, the radioactivity in the cell lysate extract. The protein assay was performed in duplicate. Each sample type was assayed in triplicate wells, and each run was performed twice. When the difference in mean uptake between OATP expressing cells and mock cells was more than 2 times, the OATP was judged to be involved in transportation of the substrate. […] Each sample type was assayed in triplicate wells.

mouse Oatp1b2 = molecular target: T2, mouse Oatp1b2 (Mus musculus, UniProt Q9JJL3); assay: Uptake assay for radiolabeled substrates, mouse Oatp1b2 expressing 293FT cells; details: 10‐min incubation
T2 sequence (Q9JJL3 1-689): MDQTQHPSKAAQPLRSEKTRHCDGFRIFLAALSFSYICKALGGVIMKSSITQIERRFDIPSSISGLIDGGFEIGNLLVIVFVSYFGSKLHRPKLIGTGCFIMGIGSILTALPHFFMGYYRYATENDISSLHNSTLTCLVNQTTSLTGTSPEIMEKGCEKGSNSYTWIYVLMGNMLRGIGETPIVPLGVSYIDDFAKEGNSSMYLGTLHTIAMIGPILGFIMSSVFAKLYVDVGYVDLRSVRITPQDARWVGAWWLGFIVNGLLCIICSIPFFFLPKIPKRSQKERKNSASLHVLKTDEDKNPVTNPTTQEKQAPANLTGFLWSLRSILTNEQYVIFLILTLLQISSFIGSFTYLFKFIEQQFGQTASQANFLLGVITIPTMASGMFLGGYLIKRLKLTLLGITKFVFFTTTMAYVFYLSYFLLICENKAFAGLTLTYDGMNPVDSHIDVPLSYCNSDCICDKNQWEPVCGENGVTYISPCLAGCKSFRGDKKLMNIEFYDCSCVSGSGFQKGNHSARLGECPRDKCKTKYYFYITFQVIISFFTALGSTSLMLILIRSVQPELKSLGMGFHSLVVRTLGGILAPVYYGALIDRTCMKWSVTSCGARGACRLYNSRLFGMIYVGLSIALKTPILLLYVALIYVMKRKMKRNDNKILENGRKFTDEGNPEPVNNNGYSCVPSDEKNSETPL
Experimental: as §1, §2

rat Oatp1b2 = molecular target: T3, rat Oatp1b2 (Rattus norvegicus, UniProt Q9QZX8); assay: Uptake assay for radiolabeled substrates, rat Oatp1b2 expressing 293FT cells; details: 10‐min incubation
T3 sequence (Q9QZX8 1-687): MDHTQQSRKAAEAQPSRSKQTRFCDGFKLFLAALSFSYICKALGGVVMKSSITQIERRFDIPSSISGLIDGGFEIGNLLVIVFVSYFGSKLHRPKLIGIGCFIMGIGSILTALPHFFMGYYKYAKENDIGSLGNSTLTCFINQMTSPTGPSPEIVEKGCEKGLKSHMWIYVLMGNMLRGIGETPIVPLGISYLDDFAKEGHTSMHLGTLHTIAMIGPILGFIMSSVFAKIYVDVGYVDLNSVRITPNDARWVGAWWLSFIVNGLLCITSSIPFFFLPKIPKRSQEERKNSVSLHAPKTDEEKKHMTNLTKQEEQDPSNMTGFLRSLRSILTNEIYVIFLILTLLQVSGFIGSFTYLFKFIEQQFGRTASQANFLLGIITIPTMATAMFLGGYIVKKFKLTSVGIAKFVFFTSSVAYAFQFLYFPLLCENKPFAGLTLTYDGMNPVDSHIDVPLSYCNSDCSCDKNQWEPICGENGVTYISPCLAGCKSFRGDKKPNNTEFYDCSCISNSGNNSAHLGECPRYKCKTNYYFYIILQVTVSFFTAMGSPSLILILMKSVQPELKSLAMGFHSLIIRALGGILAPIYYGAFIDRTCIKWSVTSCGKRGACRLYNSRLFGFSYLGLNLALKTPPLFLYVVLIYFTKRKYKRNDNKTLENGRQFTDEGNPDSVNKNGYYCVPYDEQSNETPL
Experimental: as §1, §2

C[C@]12CC[C@@H]3c4ccc(OS(=O)(=O)O)cc4CC[C@H]3[C@@H]1CCC2=O [E3S, Estrone 3‐sulfate]
Uptake, times higher than in mock cells (human OATP1B1): > 50 times
Ratio of uptake amount relative to the uptake into mock cells (human OATP1B1; Run_1, mean of 3 replicates): 69.9
Ratio of uptake amount relative to the uptake into mock cells (human OATP1B1; Run_2, mean of 3 replicates): 81.9
Ratio of uptake amount relative to the uptake into mock cells (mouse Oatp1b2; Run_1): 23.8
Ratio of uptake amount relative to the uptake into mock cells (mouse Oatp1b2; Run_2): 19.7
Ratio of uptake amount relative to the uptake into mock cells (rat Oatp1b2; Run_1): 10.0
Ratio of uptake amount relative to the uptake into mock cells (rat Oatp1b2; Run_2): 4.7

C[C@]12CC[C@@H]3c4ccc(O)cc4CC[C@H]3[C@@H]1CC[C@@H]2O[C@@H]1O[C@H](C(=O)O)[C@@H](O)[C@H](O)[C@H]1O [E217βG, Estradiol 17β‐D‐glucuronide]
Uptake, times higher than in mock cells (human OATP1B1): > 50 times
Ratio of uptake amount relative to the uptake into mock cells (human OATP1B1; Run_1, mean of 3 replicates): 48.2
Ratio of uptake amount relative to the uptake into mock cells (human OATP1B1; Run_2, mean of 3 replicates): 55.6
Ratio of uptake amount relative to the uptake into mock cells (mouse Oatp1b2; Run_1): 8.3
Ratio of uptake amount relative to the uptake into mock cells (mouse Oatp1b2; Run_2): 14.7
Ratio of uptake amount relative to the uptake into mock cells (rat Oatp1b2; Run_1): 27.4
Ratio of uptake amount relative to the uptake into mock cells (rat Oatp1b2; Run_2): 43.2

Cn1c(C(F)(F)F)cc(=O)n(-c2cc(Oc3cccnc3OCC(=O)O)c(Cl)cc2F)c1=O [S‐3100‐CA]
Ratio of uptake amount relative to the uptake into mock cells (human OATP1B1; Run_1, mean of 3 replicates): 5.7
Ratio of uptake amount relative to the uptake into mock cells (human OATP1B1; Run_2, mean of 3 replicates): 6.2
Ratio of uptake amount relative to the uptake into mock cells (mouse Oatp1b2; Run_1): 11.7
Ratio of uptake amount relative to the uptake into mock cells (mouse Oatp1b2; Run_2): 6.2
Ratio of uptake amount relative to the uptake into mock cells (rat Oatp1b2; Run_1): 6.6
Ratio of uptake amount relative to the uptake into mock cells (rat Oatp1b2; Run_2): 8.4
